Source: PMC8507746, “The FHP01 DDX3X Helicase Inhibitor Exerts Potent Anti-Tumor Activity In Vivo in Breast Cancer Pre-Clinical Models” (Cancers, 2021)
Like-named read-outs stand apart in the source and are kept apart here.

Tests used:
[1] = tested on: SKBR3 cells; assay: Cell viability / cytotoxicity assay (cell counting); assay type: cell-based; settings: Homo sapiens, SK-BR-3; SKBR3, 72 h
Experimental: (§1) Cells were seeded at 3–5 × 10^4 cells/well density (depending on cell lines) in 12-well plates, in triplicate, and maintained at 37 °C in 5% CO2. After 24 h, cells were treated with different concentrations of indicated drugs in a range from 0 to 100 μM (0, 0.1, 1, 10, 50, 100 μM). After 72 h incubation, cells were washed in PBS and harvested. Cell number of each sample was determined with Z2 Coulter Counter (Beckman Coulter, Brea, CA, USA), in triplicate. Data about cell viability were plotted in GraphPad Prism 8.0 software (GraphPad Software, San Diego, CA, USA) to draw dose-response curve and to calculate IC50.

[2] = tested on: T47D cells; assay: as above; assay type: cell-based; settings: Homo sapiens, 72 h
Experimental: as §1

[3] = Drug distribution to brain and liver in mice; assay type: in vivo, Swiss Albino mice; settings: for Kp at 4 h / Kp at 8 h: male, Swiss Albino, mouse, ip, 10 mg/kg, ng/g normalized against ng/mL
Experimental: These studies were performed at the GVKBioscience Pvt. LTD Contract Research and Development Organization (CRDO). Animals were housed in cages with clean bedding. Adult Swiss Albino male mice (weight = 20–35 g) were maintained and monitored for good health in accordance with GVKBioscience Pvt. LTD Test Facility SOPs and at the discretion of the laboratory animal veterinarian. Certified rodent diet was provided, and water was available ad libitum. A periodic analysis of the water was performed, and the results have been archived at the Test Facility. Environmental controls for the animal room were set to maintain a temperature of 22 to 25 °C, humidity of 40–70% relative humidity, and a 12-h light/12-h dark cycle. Animals have been dosed i.v. with 1 mg/kg of FHP01 i.p. with 10 mg/kg of compound or p.o. through gastric gavage needle with 50 mg/kg of compound. Next, mice were anesthetized using gaseous anesthesia and blood samples were collected at each time point, from 3 mice of respective group. After collection of blood samples at each time point, the blood samples were stored on ice, prior to centrifugation. Blood samples were centrifuged at 1540 rcf (5000 rpm), 4 °C for 10 min to separate plasma. Plasma was transferred to pre-labeled micro-centrifuge tubes and promptly frozen at −80 °C until analysis. Samples have been identified by test item, group, animal number, and collection time point. A fit-for-purpose bioanalytical method was developed for analyzing the plasma samples. One set of nine standards have been run before the sample batch and used for plotting the calibration curve. Quality control (QC) samples have been prepared at a minimum of three concentrations, i.e., LQC (not more than 5 times to that of lowest standard concentration), HQC (not less than 75% of the highest standard concentration), and MQC (between the low and high concentration). Minimum of 6 QC samples (three concentrations in duplicate). One Set of QC (LQC, MQC, and HQC) samples have been analyzed before and after the sample batch.
For the analyses of drug distribution to brain and liver, whole body perfusion was performed using chilled saline in the defined group of animals followed by decapitation for tissue collection. The chest of the mice was exposed, the abdominal aorta was clamped, and both jugular veins were cut. Intra-cardial perfusion was performed through an insertion in the left ventricle. Mice brains and livers have been collected and immediately washed, dried, weighed and freeze at −80 °C until homogenization. The protocol has been reviewed and approved by the Institutional Animal Ethics Committee (IAEC).

[4] = brain/plasma, i.p. administration, read-out: BRAIN/PLASMA
[5] = liver/plasma, i.p. administration, read-out: LIVER/PLASMA

Compound: CCCCc1cn(-c2ccc(NC(=O)Nc3ccccc3C(F)(F)F)cc2)nn1 [FHP01]
- IC50 [1]: 13.5 µM
- IC50 [2]: 10.6 µM
- tissue concentration ([3]; 24 h after administration): below the level of quantitation
- BRAIN/PLASMA ([3]; i.p. administration, 12h): BLQ
- LIVER/PLASMA ([3]; i.p. administration, 12h): BLQ
- Kp at 4 h [3, 4]: 0.5 ± 0.24
- Kp at 8 h [3, 4]: 3.14 ± 0.74
- Kp at 4 h [3, 5]: 3.75 ± 1.06
- Kp at 8 h [3, 5]: 6.32 ± 2.23
